# Experimental data reported in US20230107216A1, “PANTETHEINE DERIVATIVES AND USES THEREOF” (Comet Therapeutics, Inc., priority 2018, published 2023).
# Like-named read-outs stand apart in the source and are kept apart here.
# Experiments:
# [1] = tested on: Peripheral blood mononuclear cells co-cultured with B-cells (BT system); experiment: cells; settings: Homo sapiens, 72 h, read-out: % decrease in sIL-17
# [2] = tested on: Bronchial epithelial cells (BE3C system); experiment: BioMAP BE3C system (IL-1β, TNFα, IFNγ); assay type: cell-based, human; settings: Homo sapiens, Epithelial cell, 24 h; 10 uM; procedure of Example 831; read-out: % decrease in MMP-1
# [3] = tested on: Peripheral blood mononuclear cells co-cultured with venular endothelial cells (HUVEC) (LPS system); experiment: BioMAP LPS system; assay type: cell-based, human; settings: procedure of Example 827
# [4] = tested on: Dermal fibroblasts (HDF3CGF system); experiment: BioMAP HDF3CGF system (IL-1β, TNFα, IFNγ, EGF, bFGF, PDGF-BB); assay type: cell-based, human; settings: Homo sapiens, Fibroblast, 72 h; 1 uM; read-out: % increase in 72 Hour Proliferation
# [5] = tested on: Coronary artery smooth muscle cells (CASM3C system); experiment: BioMAP CASM3C system (IL-1β, TNFα, IFNγ); assay type: cell-based, human
# [6] = tested on: Propionic Acidemia (PA) primary fibroblasts GM00371; experiment: Mitochondrial respiration, XFe96 Extracellular Flux Analyzer (OCR/ECAR), PA fibroblasts GM00371; assay type: cell-based; settings: Homo sapiens, Fibroblast
# [7] = tested on: Bronchial epithelial cells co-cultured with dermal fibroblast (BF4T system); experiment: BioMAP BF4T system (TNFα and IL-4); assay type: cell-based, human; settings: Homo sapiens, 24 h; 10 uM; procedure of Example 830; read-out: % increase in VCAM-1
# [8] = tested on: HepG2 cells; experiment: Glucose uptake (Glucose Uptake-Glo); assay type: cell-based; settings: Homo sapiens, 50 uM, read-out: % increase in Glucose Uptake
# [9] = tested on: Venular Endothelial cells (HUVEC) (4H system); experiment: BioMAP 4H system (IL-4 and histamine); assay type: cell-based, human; settings: 10 uM; procedure of Example 826
# [10] = tested on: Peripheral blood mononuclear cells co-cultured with venular endothelial cells (Sag system); experiment: BioMAP Sag system (T-cell ligands); assay type: cell-based, human; settings: 10 uM; procedure of Example 828
# Procedure: The BioMAP platform (BioMAP® Diversity PLUS® Panel from Eurofins) is an in vitro phenotypic profiling technology that screened the compounds of the present disclosure (hereafter indicated as test agents) in human primary cell-based systems modelling complex tissue and disease states. The BioMAP assays were performed using the Eurofin's BioMAP Technology Platform as (see references 1 to 13 in the example 824 section) to model different diseases on primary cell-based model systems. These systems consisted of either single primary cell types or co-culture cells. Adherent cell types were cultured or co-cultured in 96 or 384-well plates until confluence followed by the addition of compounds prepared in DMSO at a final concentration of ≤0.1%. In each cell-based system, primary cells from heathy donors (2-6 donors) were pooled and treated with compounds at 1 and 10 μM dose 1h prior to stimulation and remain in culture as indicated in Example 825, Example 826, Example 827, Example 828, Example 829, Example 830, Example 831, Example 832, Example 833, Example 834, Example 835, Example 836 and Example 837. For on the BioMAP® Diversity PLUS® Panel, please see the following references, which are incorporate herein.
# Following the general procedure as described in Example 824, Peripheral blood mononuclear cells were co-cultured with venular endothelial cells and treated with soluble antigen (T-cell ligands) (Sag system) in the presence or absence of compounds to model autoimmune and chronic inflammation. Biomarkers read out were; MCP-1, CD38, CD40, E-selectin, CD69, IL-8, MIG, PBMC cytotoxicity, Proliferation and SRB.
# [11] = tested on: Leigh Syndrome (LS) primary fibroblasts GM03672; experiment: NADP+/NADPH (NADP/NADPH-Glo), Leigh fibroblasts GM03672; assay type: cell-based; settings: Homo sapiens, Fibroblast, Leigh GM03672 P8, assay condition B (1 mM glucose, 2 mM L-glutamine, 1 mM pyruvate, 10% FBS), 24h, read-out: Increase in Total NADP+ + NADPH
# Procedure: Primary adherent fibroblasts were cultured in minimum essential medium (MEM) (Gibco, 25030081) supplemented with 2 mM L-Glutamine (Gibco, 25030081), 15% fetal bovine serum (FBS) (Gibco, 26400044) and 1% penicillin/streptomycin (Gibco, 5140122) at 37° C. and 5% CO2. Cells were collected for either passaging or experiment at ˜70-80% confluence. Cells were obtained by trypsinization and seeded in cell culture microplates either white plate (Thermo Fisher Scientific, 152028) for luminescent measurement or black plate (Thermo Fisher Scientific, 165305) for fluorescent based read out for different assays listed below. Cells were obtained by trypsinization and […] were seeded and allowed to adhere for 16-18 hours to have confluency around 70-80% in the cell well with culture media. After 24 hours prior to measurements (37° C., 5% CO2) media was changed to Dulbecco's Modified Eagle Medium (DMEM, Agilent Seahorse cat #103575-100) with the appropriate supplements as stated below.
# Primary fibroblasts assayed were Propionic Acidemia (PA) (GM03590 Coriell Institute for Medical Research, Tsi 6337 Trans-Hit Bio), Methylmalonic Acidemia (MMA) (Tsi 5224 Trans-Hit Bio), Subnormal activation of pyruvate dehydrogenase complex (PDH) (GM01503 Coriell Institute for Medical Research), Very long-chain acyl-CoA dehydrogenase (VLCAD) (GM17475), Leigh Syndrome (LS) (GM03672, GM13411 Coriell Institute for Medical Research), Pyruvate Carboxylase Deficiency (PC) (GM00444 Coriell Institute for Medical Research). 10 μM of Compounds were added for 2 hours in PA, MMA lines and for 24h for the other fibroblast lines.
# Assay was performed according to manufacturer instructions (NADP+/NADPH-Glo Assay Promega, G9082). Assay required a plate for total measurement of NADP+/NADPH and a plate for individual measurement of NADP+ or NADPH. For every assay a 12-point standard curve is prepared ranging from 400 nM to 0.625 nM. Media is removed and replaced with 50 μl of PBS for both assays.
# For individual NADP+/NADPH measurements, 50 μl of 1% DTAB (Sigma, D5047) (cell lysis reagent) in 0.2N NaOH was added to the plates and 100 μl of lysate was split into two plates with 50 μl each from which ratio of NADP/NADPH can be calculated. 25 μl of 0.4N HCl were added to the NADP+ plates and both NADP+ and NADPH plates were heated at 60° C. for 15 minutes. The acid and heat treatment destroyed NADPH allowing individual NADP+ measurements while heating in basic conditions destroys NADP+ allowing individual NADPH measurement. After 15 minutes plates were allowed to come to room temperature and Trizma base (Sigma, T1699) was added to the NADP+ plates to neutralize the acid and HCl Trizma hydrochloride (Sigma, T2694) was added to the NADPH plates. The NADNADPH glo reagent was prepared by adding 125 μl of NAD cycling substrate, 125 μl of reductase, 125 μl of reductase substrate, 125 μl NAD cycling enzyme to a total of the 25 ml of NAD GLO reagent. 1:1 ratio of total volume of reagent was added to the individual NADP+, NADPH measurements (total 100 μl) and 50 μl were added for the total NAD/NADPH measurements. Luminescence was measured for 30-60 minutes within the linear range.
# A total dead cell count was performed as described in Example 817 and only alive cells were used for analysis.
# [12] = tested on: primary fibroblasts GM00649, GM06225, GM00612, GM00444, GM03672; experiment: MMP, ROS and ATP multiplex (ArrayScan); assay type: cell-based; settings: Homo sapiens, Fibroblast; Leigh GM03672; procedure Example 838; 50 μM (table line r25); read-out: Decreased ROS by at least 10%
# Procedure: Cell culture and treatments. Primary adherent fibroblasts were cultured in minimum essential medium (MEM) (Gibco, 25030081) supplemented with 2 mM L-Glutamine (Gibco, 25030081), 15% fetal bovine serum (FBS) (Gibco, 26400044) and 1% penicillin/streptomycin (Gibco, 5140122) at 37° C. and 5% CO2. Cells were collected for either passaging or experiment at ˜70-80% confluence. Cells were obtained by trypsinization and seeded at 10000 cells/well in cell culture microplates (Seahorse Bioscience, 101085-004) and allowed to adhere for 16 hours in culture media. After media was refreshed with DMEM (Agilent Seahorse 103575-100) supplemented with 1 mM glucose and 10% FBS (Gibco, 26400044). At the end of the incubation period, the cells were loaded with the relevant dye/antibody for each cell health marker. The assay provided simultaneous measurement of cell health parameters including cell count, ROS formation (DHE), mitochondrial membrane potential (MitoTracker®) and cellular ATP content (CellTiter-Glo®, Promega). The plates were then scanned using an automated fluorescent cellular imager, ArrayScan® (Thermo Scientific Cellomics). Assay conditions were optimized by one skilled in the art.
# Primary cells used in this example were obtained from Coriell Institute for Medical Research and consisted of GM00649, MSUD (Maple Syrup Urine Disease) Tyle IA; GM06225, Kearns-Sayre Syndrome; GM00612, MSUD (Maple Syrup Urine Disease) Tyle II GM00444, Pyruvate Carboxylase Deficiency and GM03672, Leigh Syndrome.
# [13] = tested on: primary fibroblasts (healthy controls and PA, MMA, BCKDK, PDH, VLCAD, LS, PC, GA, VLCFA, KSS, FXN, HD); experiment: Measurement of ROS (H2DCFDA) in primary fibroblasts; assay type: cell-based, human; settings: Homo sapiens, procedure Example 812, Assay Condition C
# Summary of the method: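 Patient and healthy-control primary fibroblasts switched to supplemented DMEM 24 h before assay, then treated with compound (10 μM) plus H2DCFDA (22 μM) for 2 h (PA, MMA lines) or 24 h (other lines). Kinetic fluorescence at 492/527 nm over 60 min; only live cells analysed.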
smiles,measurement,setting,value
"CCC(=O)OCC(C)(C)[C@@H](O)C(=O)NCCC(=O)NCCSC(=O)CCC(=O)O [Compound 157, 4-[(2-[3-[(2R)-2-hydroxy-3,3-dimethyl-4-(propanoyloxy)butanamido]propanamido]ethyl)sulfanyl]-4-oxobutanoic acid]",inhibition at 1 µM,[1],≥ 10%
same,inhibition at 10 µM,[2],≥ 10%
same,% increase in Tissue Factor,[3]; 1 uM,≥10%
same,inhibition at 10 µM,"[3]; Homo sapiens, HUVEC, 24 h, 10 uM, read-out: % decrease in IL-1α",≥ 10%
same,inhibition at 10 µM,"[3]; Homo sapiens, HUVEC, 24 h, 10 uM, read-out: % decrease in TissueFactor",≥ 10%
same,activation at 10 µM,"[3]; Homo sapiens, HUVEC, 24 h, 10 uM, read-out: % increase in sTNFα",≥ 10%
same,activation at 1 µM,[4],≥ 10%
same,% decrease in Proliferation,"[5]; 1 uM, procedure of Example 832",≥10%
same,% decrease in HLA-DR,[5]; 10 uM,≥10%
same,activation at 50 µM,"[6]; assay condition C (10 mM glucose, 10% FBS), 50 μM, read-out: Increase in Maximal Respiratory Capacity AUC",≥ 10%
same,activation at 10 µM,[7],≥ 10%
same,activation at 50 µM,[8],≥ 20%
same,% decrease in MCP-1,[9],≥10%
same,% increase in Proliferation,[10],≥10%
"CC(C)(CO)[C@@H](OC(=O)CN)C(=O)NCCC(=O)NCCSC(=O)CCC(=O)O [Compound 1292, 4-[(2-[3-[(2R)-2-[(2-aminoacetyl)oxy]-4-hydroxy-3,3-dimethylbutanamido]propanamido]ethyl)sulfanyl]-4-oxobutanoic acid]",activation at 10 µM,[11],≥ 10%
same,inhibition at 50 µM,[12],≥ 10%
same,activation at 10 µM,"[6]; assay condition D (1 mM glucose, 10% FBS), 10 μM, read-out: Increase in Spare Capacity AUC",≥ 30%
same,inhibition at 10 µM,"[13]; Fibroblast, KSS GM06225, read-out: Decreased ROS by at least 30%",≥ 30%
same,inhibition at 10 µM,"[13]; Fibroblast, Leigh GM13411, read-out: Decreased ROS by at least 10%",≥ 10%
same,inhibition at 10 µM,"[13]; FXN GM04078, read-out: Decreased ROS by at least 10%",≥ 10%
same,inhibition at 10 µM,"[13]; FXN GM04078, read-out: Decreased ROS by at least 30%",≥ 30%
